Laboratory results: patent US20060013804A1, “Modulation of stem cell differentiation by modulation of caspase-3 activity” (Ottawa Health Research Institute, priority 2002, published 2006)
“Also recorded” adds a separate entry of the source.

How the values were obtained:
[1] = tested on: clonally-derived CD1 neurospheres; assay: CD1 neurosphere differentiation with caspase inhibitor: immunocytochemistry and immunoblot of neural markers; format: cell-based, mouse; details: for nestin expression under differentiation conditions: early periods (48 h)
Protocol: Neurosphere culture: clonally-derived neurospheres were generated from the striatum of E14.5 CD1 murine embryos according to methods previously described (Reynolds, B. A., and Weiss, S. (1996) Dev Biol 175, 1-13). The neurospheres were maintained in NeuroCult Proliferation Medium (StemCell Technologies, Canada) supplemented with 20 ng/ml basic fibroblast growth factor (bFGF) as per manufacturer's instructions.
Neurospheres were sub-cultured no more than once per collection. The differentiation of neurospheres was initated by plating spheres on poly-L-ornithine coated plates in NeuroCult Differentiation Medium in the absence of bFGF, as per manufacturer's instructions. […] All cultures received fresh media and inhibitor every 24 h for the duration of the experiment. Neurospheres from caspase 3 null embryos (Fernando, P., et al., (2002) Proc Natl Acad Sci USA 99, 11025-11030) were cultured as described above.
Immunocytochemistry: Neurospheres were collected at selected time points, fixed in 4% paraformaldehyde and prepared for immunostaining as previously described (Fernando, P., et al., (2002) Proc Natl Acad Sci USA 99, 11025-11030)). The primary antibody concentrations for anti-nestin, -GFAP, -MBP and -active caspase 3 (BioVision, USA) were titrated on wildtype CD1 neurospheres prior to their experimental use. These antibodies were visualized by counterstaining with either FITC or Cy3 conjugated secondary antibodies (Chemicon USA). Nuclei were localized with 4′,6-Diamidino-2 phenylindole (DAPI) (Sigma, USA). Cells were visualized using either an Axiovert 100 for transmission microscopy or Axioplan 2 for fluorescent microscopy (Zeiss, Germany) at selected magnifications. Captured images were processed using AxioVision Viewer 3.0 software.
Immunoblot Assays: Immunoblot analyses were performed as previously described (Fernando, P., et al., (2002) Proc Natl Acad Sci USA 99, 11025-11030). All samples were processed at 4° C. to maintain protein integrity. To generate neurosphere cell extracts, cultured neurospheres were collected at the indicated time points and solubilized in modified RIPA buffer containing protease and phosphatase inhibitors. Cells were sheared 4-5 times through a 21 gauge needle and mixed by 360° rotation at 4° C. for 30 minutes. Nestin 3 (AbCam, UK) was detected following the separation of total cellular proteins through a 6% acrylamide gel and Western transfer. Antibodies against neuronal class III […] and GFAP (AbCam, USA), active caspase 3 (BioVision, USA), 2′3′ cyclic nucleotide 3′ phosphohydrolase (CNPase) (Chemicon, USA) and p38α (Santa Cruz, USA) were used to detect proteins following separation by 10% polyacrylamide electrophoresis and Western transfer. In some instances, sample aliquots were sonicated following cell lysis in order to detect total cellular poly-ADP ribose polymerase (PARP) (BioVison, USA). Soluble PARP was assayed from unsonicated samples. Protein bands from Western blot assays were quantitated using Scion Image (Scion Corporation, USA).

[2] = tested on: primary striatal stem cells (neurospheres); assay: Primary striatal neurospheres with or without caspase-3 inhibitor, immunostaining for neural lineage markers; format: cell-based, mouse; details: 1 μM inhibitor
Protocol: After sacrificing, the abdomen was sprayed with 70% ethanol. A 2 cm incision is made vertically up the abdomen. The horn was removed with sterile tweezers, and placed in PBS. The horn was cut open the horn to expose one embryo at a time and each embryo was placed in a separate 35 mm tissue culture dish containing 2 ml PBS. Each embryo was pinned to the dish and the cortex peeled off layer by layer to expose the striatum, which was then removed. The striatal tissue was placed in a 50 ml Falcon Tube containing cold Hank's Balanced Salt Solution (HBSS) on ice and the tissue allowed to settle at the bottom of the tube. The HBSS was replaced with 2 ml of Complete Neurocult Proliferation Media and the tissue triturated gently until only a few fragments of tissue remained. The supernatant was then collected and the fragments of tissue were triturated in 1 ml media. The supernatant was again removed and stored with the first supernatant that was collected.
At this point the number of cells can be counted using an aliquot of Trypan Blue (1/5 dilution). Cells were seeded at a density of 1 million cells per 25 ml of Complete Proliferation Media and grown in Complete Neurocult Proliferation Media for 4 days, at which time they were expanded if the plates appeared too confluent. If expansion was not necessary, the cells were allowed to grow for a few more days prior to harvesting. To expand the primary culture, half the cell suspension was placed in a new dish and 12.5 ml of Complete Proliferation Media was added to each of the initial plate and the expanded plate. After a few days, once most of the spheres had lifted off the dish, the sphere suspension was confluent. At this time, cells were either passaged in growth media, frozen, or plated onto a differentiation plate.
Plating and Differentiation of Striatal Stem Cells: In order to differentiate neurospheres, they must be plated onto a surface coated with Laminin and Poly-D-Lysine. The sphere suspension was collected from a 10 cm dish, placed in a 50 ml tube and centrifuged at 500 rpm for 5 min at 4° C. The supernatant was aspirated and discarded, then 2 ml of Complete Neurocult Proliferation Media was added and the sphere pellet gently triturated until the spheres were resuspended. The sphere suspension was then diluted in Complete Neurocult Proliferation Media to obtain the desired concentration (one 10 cm dish of neurospheres is appropriate for approximately 4 coated chamber slides). 2 ml aliquots of sphere suspension were plated per chamber and after a few hours at 37° C., the medium was changed to Complete Neurocult Differentiation media.
Paraformaldehyde (PFA) Fixing of Cells: Freshly made 4% PFA was used. Media was aspirated out of wells and each well was washed with 2 ml PBS for 3 min. […]

[3] = 2.0 μM inhibitor, differentiation media 48 h

SMILES: COC(=O)CC[C@H](NC(=O)[C@H](CC(=O)OC)NC(=O)OCc1ccccc1)C(=O)N[C@H](C(=O)N[C@@H](CC(=O)OC)C(=O)CF)C(C)C [z-DEVD.fmk]
- GFAP expression [1, 3]: significant decrease; also recorded: fail to express the astrocyte marker protein GFAP
- MBP expression [1, 3]: significant decrease; also recorded: fail to express the oligodendrocyte marker protein MBP
- nestin expression under differentiation conditions ([1]; 2.0 μM inhibitor, differentiation media): sustained expression of nestin; also recorded: remain in an early progenitor state and express nestin
- nestin expression under differentiation conditions ([1]; 2.0 μM inhibitor, differentiation media, listed as DEVD): remained elevated
- nestin expression under differentiation conditions ([1]; 2.0 μM inhibitor, differentiation media, listed as z-DEVD): remained elevated during the early periods of differentiation
- nestin expression under growth conditions ([1]; 2.0 μM inhibitor, growth conditions): did not affect nestin expression; also recorded: express nestin
- nestin after extended period in differentiation media ([1]; 4 d, immunoblot): a decrease in nestin was observed
- β-III tubulin level after 5 d ([1]; 5 d differentiation, immunoblot): very low level of β-III tubulin was detectable
- β-III tubulin (Tuj-1) accumulation ([1]; differentiation media, immunoblot, vs DMSO): did not increase; also recorded: lower in caspase 3 inhibited samples relative to control
- glial fibrillary acid protein staining (astrocytes) ([2]; 48 h differentiation): showed no staining for astrocytes
- myelin basic protein staining (oligodendricytes) ([2]; 48 h differentiation): did not stain positive for oligodendricytes
- nestin staining after differentiation ([2]; 48 h differentiation): retain their undifferentiated lineage as demonstrated by the presence of nestin
- cell cycling (nestin staining during proliferation) ([2]; proliferating striatal stem cells): does not have an effect on cell cycling
